Data on eleven compounds can be found in DBAASP.

≈ marks a conversion by molar mass, not a printed value. Where “and” joins values, the source holds several entries; their conditions need not be identical. Equal values may be shown once.

Common to all, as to assay: ≥ marks a high value that may be exact or a test limit, other limits are often not marked, values filed in µg/mL are converted to µM
For assay [1], the system named is Staphylococcus aureus ATCC 25923.
In assay [2] the test system is Candida albicans ATCC 20032.
For assay [3], the system named is Escherichia coli ATCC 25922.
Assay [4] deals with Bacillus subtilis ATCC 6633.
In assay [5] the test system is Escherichia coli ATCC 10536.
Assay [6] relates to Staphylococcus aureus ATCC 9144.
Assay [7] deals with Escherichia coli DH5alpha.
Assay [8] deals with Salmonella enterica serovar Typhimurium.
Assay [9] deals with Enterococcus faecalis ATCC 29212.
For assay [10], the system named is Escherichia coli UB1005.
In assay [11] the test system is Staphylococcus epidermidis.
For assay [12], the system named is Pseudomonas aeruginosa H103.
For assay [13], the system named is Candida albicans.
Assay [14] deals with Staphylococcus aureus ATCC 12600.
Assay [15] relates to Streptococcus mutans ATCC 25175.
In assay [16] the test system is Pseudomonas aeruginosa ATCC 27853.
Assay [17] concerns Salmonella enterica subsp. enterica serovar Typhimurium ATCC 14028.
Assay [18] relates to Klebsiella pneumoniae ATCC 10031.

On to `CC[C@H](C)[C@H](N)C(=O)N[C@@H](CC(C)C)C(=O)NCC(=O)N1CCC[C@H]1C(=O)N[C@H](C(=O)N[C@@H](CC(C)C)C(=O)NCC(=O)N[C@@H](CC(C)C)C(=O)N[C@H](C(=O)NCC(=O)N[C@@H](CC(=O)O)C(=O)N[C@H](C(=O)N[C@@H](CC(C)C)C(=O)NCC(=O)N[C@@H](CC(=O)O)C(=O)N[C@@H](CC(C)C)C(=O)N[C@@H](CC(C)C)C(N)=O)[C@@H](C)O)C(C)C)C(C)C` [ILGPVLGLVGDTLGDLL], for which the MIC in assay [1] was greater than 60.1 µM; in [2], no less than 60.1 µM; in assay [3], greater than 60.1 µM; in assay [4], no less than 60.1 µM.
`CC[C@H](C)[C@H](NC(=O)CN)C(=O)NCC(=O)NCC(=O)N[C@@H](C)C(=O)N[C@@H](CC(C)C)C(=O)N[C@@H](CC(C)C)C(=O)N[C@@H](CO)C(=O)N[C@@H](C)C(=O)NCC(=O)N[C@@H](CCCCN)C(=O)N[C@@H](CO)C(=O)N[C@@H](C)C(=O)N[C@@H](CC(C)C)C(=O)N[C@@H](CCCCN)C(=O)NCC(=O)N[C@@H](CC(C)C)C(=O)N[C@@H](C)C(=O)N[C@@H](CCCCN)C(=O)NCC(=O)N[C@@H](CC(C)C)C(=O)N[C@@H](C)C(=O)N[C@@H](CCC(=O)O)C(=O)N[C@@H](Cc1cnc[nH]1)C(=O)N[C@@H](Cc1ccccc1)C(N)=O` [GIGGALLSAGKSALKGLAKGLAEHF]: the minimum inhibitory concentration (MIC) in assay [1] was 15.8 µM (≈ 37.5 µg/mL); in [2], no less than 42.3 µM; in assay [3], 31.7 µM (≈ 75 µg/mL); in assay [4] it was no less than 42.3 µM.
`CC[C@H](C)[C@H](NC(=O)[C@H](CCCN=C(N)N)NC(=O)[C@@H](NC(=O)[C@@H](NC(=O)[C@@H]1CCCN1C(=O)[C@@H](NC(=O)[C@@H](NC(=O)[C@@H](NC(=O)[C@@H]1CCCN1C(=O)CNC(=O)[C@H](Cc1ccc(O)cc1)NC(=O)[C@H](CCCCN)NC(=O)[C@H](CCCCN)NC(=O)[C@H](Cc1c[nH]c2ccccc12)NC(=O)[C@H](C)NC(=O)[C@H](CCCN=C(N)N)NC(=O)[C@H](CC(C)C)NC(=O)[C@@H](NC(=O)[C@H](CCCCN)NC(=O)[C@H](CCCN=C(N)N)NC(=O)CNC(=O)[C@H](CC(C)C)NC(=O)[C@H](CO)NC(=O)[C@H](CCCN=C(N)N)NC(=O)[C@H](C)NC(=O)CNC(=O)CN)[C@@H](C)CC)[C@@H](C)CC)[C@@H](C)CC)C(C)C)[C@@H](C)CC)[C@@H](C)CC)C(N)=O` [GGARSLGRKILRAWKKYGPIIVPIIRI]: the MIC was determined as 2.2 µM (≈ 6.67 µg/mL) in assay [5], 1.2 µM (≈ 3.64 µg/mL) in assay [4], 3.1 µM (≈ 9.4 µg/mL) in [6] and 2.5 µM (≈ 7.58 µg/mL) in assay [7].
`CC[C@H](C)[C@H](NC(=O)[C@H](CCCN=C(N)N)NC(=O)[C@H](C)NC(=O)[C@H](CC(C)C)NC(=O)[C@@H](N)CCCN=C(N)N)C(=O)N[C@H](C(=O)N1CCC[C@H]1C(=O)N[C@H](C(=O)N[C@@H](CCCN=C(N)N)C(=O)N[C@H](C(=O)N[C@@H](C)C(=O)N[C@@H](CCCN=C(N)N)C(=O)O)C(C)C)[C@@H](C)CC)C(C)C` [RLARIVPIRVAR]: the MIC in [1] is greater than 176 µM; in assay [8] it was no less than 176 µM; in assay [9] it was greater than 176 µM; in [10], no less than 176 µM; in [11], no less than 176 µM; in assay [12] it was no less than 176 µM. The MIC in assay [13] was greater than 176 µM.
On to `CC[C@H](C)[C@H](NC(=O)[C@H](C)NC(=O)CNC(=O)[C@H](Cc1ccccc1)NC(=O)[C@H](CC(C)C)NC(=O)CN)C(=O)N[C@@H](C)C(=O)NCC(=O)N[C@@H](Cc1ccccc1)C(=O)N[C@H](C(=O)N[C@@H](CCC(=O)O)C(=O)N[C@@H](CC(N)=O)C(=O)NCC(=O)N[C@@H](Cc1c[nH]c2ccccc12)C(=O)N[C@@H](CCC(=O)O)C(=O)NCC(=O)N[C@@H](CCSC)C(=O)N[C@H](C(=O)N[C@@H](CC(=O)O)C(=O)NCC(N)=O)[C@@H](C)CC)[C@@H](C)CC` [GLFGAIAGFIENGWEGMIDG], for which the MIC in [14] is no less than 60.9 µM; in assay [3], greater than 60.9 µM; in [15] it was no less than 60.9 µM; in [16] it was greater than 60.9 µM.
Regarding `CC[C@H](C)[C@H](NC(=O)[C@@H]1CCCN1C(=O)[C@@H]1CCCN1C(=O)[C@H](CO)NC(=O)[C@@H](NC(=O)[C@H](CCCCN)NC(=O)[C@H](CCCCN)NC(=O)[C@H](Cc1ccccc1)NC(=O)[C@H](CC(C)C)NC(=O)[C@H](CCCCN)NC(=O)[C@H](CCCCN)NC(=O)CNC(=O)[C@H](CCCCN)NC(=O)[C@H](CCCCN)NC(=O)[C@H](CCCN=C(N)N)NC(=O)[C@H](Cc1ccccc1)NC(=O)[C@H](CCCN=C(N)N)NC(=O)[C@H](CCCCN)NC(=O)[C@H](Cc1ccccc1)NC(=O)[C@H](CCCN=C(N)N)NC(=O)[C@@H](N)Cc1ccccc1)C(C)C)C(=O)N[C@@H](CC(C)C)C(=O)N[C@@H](CC(C)C)C(=O)N[C@@H](CC(C)C)C(=O)N[C@@H](Cc1cnc[nH]1)C(=O)N[C@@H](CC(C)C)C(N)=O` [FRFKRFRKKGKKLFKKVSPPILLLHL], the MIC in assay [5] was 3.3 µM and 8.1 µM; in assay [6] it was 3.2 µM (≈ 10.3 µg/mL); in assay [7], 3.1 µM (≈ 10 µg/mL).
On to `CC[C@H](C)[C@H](NC(=O)CN)C(=O)NCC(=O)N[C@@H](C)C(=O)N[C@H](C(=O)N[C@@H](CC(C)C)C(=O)N[C@@H](CCCCN)C(=O)N[C@H](C(=O)N[C@@H](C)C(=O)N[C@H](C(=O)N[C@H](C(=O)NCC(=O)N[C@@H](CC(C)C)C(=O)N1CCC[C@H]1C(=O)N[C@@H](C)C(=O)N[C@@H](C)C(=O)N[C@H](C(=O)N[C@@H](CO)C(=O)N[C@@H](Cc1c[nH]c2ccccc12)C(=O)N[C@H](C(=O)N[C@@H](CCCCN)C(=O)N[C@@H](CCCN=C(N)N)C(=O)N[C@@H](CCCCN)C(=O)N[C@@H](CCCN=C(N)N)C(=O)N[C@@H](CCC(N)=O)C(=O)N[C@@H](CCC(N)=O)C(N)=O)[C@@H](C)CC)[C@@H](C)CC)[C@@H](C)O)[C@@H](C)O)C(C)C)C(C)C` [GIGAVLKVATTGLPAAISWIKRKRQQ], for which the MIC was 3.3 µM (≈ 9.12 µg/mL) in [5], 6 µM (≈ 16.6 µg/mL) in assay [4], 4 µM (≈ 11 µg/mL) in assay [6] and 4.2 µM (≈ 11.6 µg/mL) in assay [7].
`NCCCC[C@H](NC(=O)[C@H](CCCN=C(N)N)NC(=O)[C@H](CCCN=C(N)N)NC(=O)[C@H](Cc1c[nH]c2ccccc12)NC(=O)[C@@H](N)CCCN=C(N)N)C(=O)N[C@@H](Cc1c[nH]c2ccccc12)C(=O)N[C@@H](Cc1c[nH]c2ccccc12)C(=O)N[C@@H](Cc1c[nH]c2ccccc12)C(=O)N[C@@H](Cc1c[nH]c2ccccc12)C(=O)O` [RWRRKWWWW]: the minimal inhibitory concentration (MIC) in assay [1] stood at 0.7 µM (≈ 1.08 µg/mL); in assay [8], 2.8 µM (≈ 4.33 µg/mL); in assay [9], 2.8 µM (≈ 4.33 µg/mL); in [10], 1.4 µM (≈ 2.16 µg/mL); in [11], 0.7 µM (≈ 1.08 µg/mL); in assay [12], 11.2 µM (≈ 17.3 µg/mL). In assay [13], this compound registered an MIC of 5.6 µM (≈ 8.66 µg/mL).
As for `CC[C@H](C)[C@H](NC(=O)[C@H](CCCN=C(N)N)NC(=O)[C@H](Cc1ccccc1)NC(=O)[C@H](CCC(N)=O)NC(=O)[C@@H](N)CCCCN)C(=O)N[C@@H](CCCN=C(N)N)C(=O)N[C@H](C(=O)N[C@@H](CCCN=C(N)N)C(=O)N[C@H](C(=O)N[C@H](C(=O)N[C@@H](CCCN=C(N)N)C(=O)N[C@@H](CCCCN)C(N)=O)[C@@H](C)CC)C(C)C)C(C)C` [KQFRIRVRVIRK], the minimum inhibitory concentration (MIC) in [1] is 7.5 µM (≈ 12 µg/mL); in assay [8], 3.75 µM (≈ 6 µg/mL); in assay [10], 1.88 µM (≈ 3 µg/mL); in assay [11], 1 µM (≈ 1.6 µg/mL); in [12], 3.75 µM (≈ 6 µg/mL); in assay [13], 3.75 µM (≈ 6 µg/mL).
Turning to `CC(C)C[C@H](NC(=O)[C@H](Cc1ccccc1)NC(=O)[C@H](CCCCN)NC(=O)[C@H](C)NC(=O)[C@H](C)NC(=O)[C@H](CC(C)C)NC(=O)[C@H](CCCCN)NC(=O)[C@H](CCCCN)NC(=O)[C@H](CC(C)C)NC(=O)[C@H](CC(C)C)NC(=O)[C@H](CCCCN)NC(=O)[C@H](CC(C)C)NC(=O)[C@@H](N)Cc1ccccc1)C(=O)O` [FLKLLKKLAAKFL], the minimum inhibitory concentration (MIC) came out at 16.3 µM (≈ 25 µg/mL) in assay [17], 16.3 µM (≈ 25 µg/mL) in assay [18] and 2.04 µM (≈ 3.13 µg/mL) in assay [7].
On to `CC(C)C[C@H](NC(=O)[C@H](C)NC(=O)[C@@H](N)CO)C(=O)N[C@H](C(=O)NCC(=O)N[C@H]1CSSC[C@@H](C(=O)N[C@@H](Cc2ccccc2)C(=O)NCC(=O)N[C@@H](CCCN=C(N)N)C(=O)NCC(=O)O)NC(=O)[C@@H]2CCCN2C(=O)[C@H](CC(N)=O)NC(=O)[C@@H]2CCCN2C(=O)[C@@H]2CCCN2C(=O)[C@H](Cc2ccc(O)cc2)NC(=O)[C@H](CO)NC(=O)[C@H](CCCCN)NC(=O)[C@H]([C@@H](C)O)NC(=O)[C@H](Cc2c[nH]c3ccccc23)NC1=O)C(C)C` [SALVGCWTKSYPPNPCFGRG], for which the MIC is 11.7 µM (≈ 25 µg/mL) in assay [1] and no less than 46.7 µM in [2].
